The values that follow come from US12037344B2, “NLRP3 modulators” (INNATE TUMOR IMMUNITY, INC., priority 2018, dated 2024).

SMILES strings stand for the structures.

For one test, the target named is T1, TLR8 (Homo sapiens, UniProt Q9NR97).
T1 construct: human HEK-Blue cells co-expressing a TLR7 or TLR8 gene
T1 sequence (Q9NR97 27-1041): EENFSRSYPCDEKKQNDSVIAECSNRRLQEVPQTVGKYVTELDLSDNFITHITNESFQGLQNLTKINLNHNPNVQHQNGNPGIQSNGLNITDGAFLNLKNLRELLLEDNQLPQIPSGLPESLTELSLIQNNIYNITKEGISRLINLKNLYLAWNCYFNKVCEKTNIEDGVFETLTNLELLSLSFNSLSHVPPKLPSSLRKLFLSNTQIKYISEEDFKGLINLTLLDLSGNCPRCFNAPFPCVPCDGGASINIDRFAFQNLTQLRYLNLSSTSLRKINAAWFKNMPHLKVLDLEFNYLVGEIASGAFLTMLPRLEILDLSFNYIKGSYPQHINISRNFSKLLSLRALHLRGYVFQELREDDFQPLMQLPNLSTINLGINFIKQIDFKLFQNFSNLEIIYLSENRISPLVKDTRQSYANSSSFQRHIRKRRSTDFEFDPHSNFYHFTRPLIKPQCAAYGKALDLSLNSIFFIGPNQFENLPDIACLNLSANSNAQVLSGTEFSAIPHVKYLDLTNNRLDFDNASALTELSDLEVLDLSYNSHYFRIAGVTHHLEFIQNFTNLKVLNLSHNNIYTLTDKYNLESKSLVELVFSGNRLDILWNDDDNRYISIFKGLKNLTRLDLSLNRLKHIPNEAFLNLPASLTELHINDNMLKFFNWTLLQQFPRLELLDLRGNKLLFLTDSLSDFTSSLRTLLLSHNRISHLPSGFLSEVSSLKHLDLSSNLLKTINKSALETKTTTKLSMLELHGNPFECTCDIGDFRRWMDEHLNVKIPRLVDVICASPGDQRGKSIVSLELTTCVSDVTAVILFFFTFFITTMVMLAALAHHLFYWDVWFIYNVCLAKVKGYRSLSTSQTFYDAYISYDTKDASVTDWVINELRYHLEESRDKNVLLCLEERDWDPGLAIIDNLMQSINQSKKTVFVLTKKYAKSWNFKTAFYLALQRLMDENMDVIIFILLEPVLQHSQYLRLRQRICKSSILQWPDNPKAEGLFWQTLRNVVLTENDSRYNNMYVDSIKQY
The test is described as follows: In vitro human TLR8 binding reporter assay (HEK-Blue, NF-kB/AP1-inducible SEAP). Particulars: activity range, read-out: TLR8 Agonist EC50. It is filed as cell-based. In outline:
(§1)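 HEK-Blue cells expressing human TLR7 or TLR8 with NF-kB/AP1-inducible SEAP reporter, plated 24 h, then compound-treated 18 h at 37° C, 5% CO2. EC50 normalized to 100% Ymax set by 50 μM reference standard.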
On the technique in general: Reporter assays use an easily measured gene product as a stand-in for the process of interest.

The test system of a further test is THP-1 cells. The test is described as follows: Measurement of IL-1β production, hTRF protocol (second alternative procedure), THP-1 cells. It is filed as cell-based, human. Particulars: Homo sapiens, THP-1, IL-1β production, human cells; read-out: NLRP3 hILIB EC50. In outline:
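Compounds, dilution series starting at a final 10 μM, were incubated 2 hours at 37° C with PMA-differentiated THP-1 cells (50 ng/ml overnight; 50,000 cells/well, 2% FBS RPMI). Released IL-1β quantified in supernatant by hTRF kit with 1:40 antibody dilution, 4° C overnight, 665/615 nm ratio.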

Another test concerns the target T2, TLR7 (Homo sapiens, UniProt Q9NYK1).
T2 construct: human HEK-Blue cells co-expressing a TLR7 or TLR8 gene
T2 sequence (Q9NYK1 27-1049): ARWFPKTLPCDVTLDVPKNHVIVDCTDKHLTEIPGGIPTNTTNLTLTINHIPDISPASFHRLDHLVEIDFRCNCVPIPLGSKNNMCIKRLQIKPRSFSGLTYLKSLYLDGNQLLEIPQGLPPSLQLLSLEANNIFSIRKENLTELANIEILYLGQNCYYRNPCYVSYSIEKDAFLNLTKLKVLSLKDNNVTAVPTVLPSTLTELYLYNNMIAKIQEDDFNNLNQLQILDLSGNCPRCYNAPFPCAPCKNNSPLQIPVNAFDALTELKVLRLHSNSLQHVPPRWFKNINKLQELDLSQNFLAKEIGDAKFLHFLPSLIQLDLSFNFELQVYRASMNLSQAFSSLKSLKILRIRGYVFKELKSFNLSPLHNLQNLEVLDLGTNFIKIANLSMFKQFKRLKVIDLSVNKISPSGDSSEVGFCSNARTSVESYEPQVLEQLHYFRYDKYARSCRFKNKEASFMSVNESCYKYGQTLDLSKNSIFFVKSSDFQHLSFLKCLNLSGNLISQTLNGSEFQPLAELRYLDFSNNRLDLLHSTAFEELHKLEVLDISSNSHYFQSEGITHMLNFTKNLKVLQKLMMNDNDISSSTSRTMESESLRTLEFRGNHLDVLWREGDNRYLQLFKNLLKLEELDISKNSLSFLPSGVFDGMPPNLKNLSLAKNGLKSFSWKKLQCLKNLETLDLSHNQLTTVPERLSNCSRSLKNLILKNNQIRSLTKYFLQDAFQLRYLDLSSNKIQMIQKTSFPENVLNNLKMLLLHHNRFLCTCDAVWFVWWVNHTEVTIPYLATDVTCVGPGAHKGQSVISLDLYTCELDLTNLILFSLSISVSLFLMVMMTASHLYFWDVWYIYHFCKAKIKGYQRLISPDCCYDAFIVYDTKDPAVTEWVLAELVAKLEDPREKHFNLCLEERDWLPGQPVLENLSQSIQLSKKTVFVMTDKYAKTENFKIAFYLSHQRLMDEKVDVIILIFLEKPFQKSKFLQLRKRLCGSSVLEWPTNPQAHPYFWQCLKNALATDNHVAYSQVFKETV
The experiment in a line: In vitro human TLR7 binding reporter assay (HEK-Blue, NF-kB/AP1-inducible SEAP). In kind it is cell-based. Particulars: activity range, read-out: TLR7 Agonist EC50. The essentials:
as §1

For orientation: EC50 means the concentration that produces a half-maximal response. As to `CC(C(=O)N(C)CCO)n1cc2c(N)nc3cc(-c4ccn[nH]4)ccc3c2n1` (stereo not drawn) [Example 584], the EC50 at TLR8 was more than 100 µM; with THP-1 cells, 5.03 µM; on TLR7 it was more than 100 µM.

Turning to `COCCS(=O)(=O)NCCCn1cc2c(N)nc3cc(-c4ccn[nH]4)ccc3c2n1` [Example 585], the EC50 was more than 100 µM on TLR8, 3.88 µM in the test on THP-1 cells and more than 100 µM on TLR7.

As for `CS(=O)(=O)NCCCn1cc2c(N)nc3cc(-c4ccn[nH]4)ccc3c2n1` [Example 586], the EC50 on TLR8 is more than 100 µM; in the test on THP-1 cells, 2.18 µM; on TLR7 it was more than 100 µM.

Consider `Nc1nc2cc(-c3ccn[nH]3)ccc2c2nn(CCCNS(=O)(=O)c3ccccc3)cc12` [Example 587], for which the concentration giving a half-maximal response (EC50) is more than 100 µM on TLR8, 2.39 µM with THP-1 cells and more than 100 µM on TLR7.

Consider `CC(C)S(=O)(=O)NCCCn1cc2c(N)nc3cc(-c4ccn[nH]4)ccc3c2n1` [Example 588], for which the EC50 on TLR8 was more than 100 µM; in the test with THP-1 cells, 10.9 µM; at TLR7, more than 100 µM.

In the case of `Nc1nc2cc(-c3ccn[nH]3)ccc2c2nn(CCCNS(=O)(=O)C3CC3)cc12` [Example 589], the EC50 was more than 100 µM on TLR8, 2.62 µM with THP-1 cells and more than 100 µM on TLR7.

On to `Nc1nc2cc(-c3ccn[nH]3)ccc2c2nn(CCNS(=O)(=O)C3CC3)cc12` [Example 590], for which the figures for the EC50 on TLR8, in the test on THP-1 cells and on TLR7 were more than 100 µM, 1.2 µM and more than 100 µM, respectively.

On to `CC(C)(Cn1cc2c(N)nc3cc(-c4ccn[nH]4)ccc3c2n1)C(=O)N1CCOCC1` [Example 591], for which the EC50 was more than 100 µM on TLR8, 17 µM in the test with THP-1 cells and more than 100 µM on TLR7.

For the molecule `CN(C)C(=O)C(C)(C)Cn1cc2c(N)nc3cc(-c4ccn[nH]4)ccc3c2n1` [Example 592], the EC50 at TLR8 is more than 100 µM; with THP-1 cells it was 0.68 µM; at TLR7, more than 100 µM.

As to `Nc1nc2cc(-c3ccn[nH]3)ccc2c2nn(CCNS(=O)(=O)N3CCOCC3)cc12` [Example 593], the EC50 is more than 100 µM at TLR8, 28.1 µM in the test on THP-1 cells and more than 100 µM on TLR7.

`CC(C)(Cn1cc2c(N)nc3cc(-c4ccn[nH]4)ccc3c2n1)C(=O)NCCO` [Example 594]: the concentration for a half-maximal effect (EC50) on TLR8 is more than 100 µM; with THP-1 cells, 7.94 µM; on TLR7, more than 100 µM.

As for `Nc1nc2cc(-c3ccn[nH]3)ccc2c2nn(CCCNS(=O)(=O)c3cccnc3)cc12` [Example 595], the EC50 was more than 100 µM on TLR8, 12.9 µM in the test with THP-1 cells and more than 100 µM at TLR7.

Turning to `CC(C)(Cn1cc2c(N)nc3cc(-c4ccn[nH]4)ccc3c2n1)C(=O)NCC(F)F` [Example 596], the EC50 on TLR8 was more than 100 µM; in the test with THP-1 cells, 10.1 µM; at TLR7, more than 100 µM.

On to `CC(C)(Cn1cc2c(N)nc3cc(-c4ccn[nH]4)ccc3c2n1)C(=O)N1CC(O)C1` [Example 597], for which the EC50 on TLR8 is more than 100 µM; with THP-1 cells it was 8.7 µM; on TLR7, more than 100 µM.

Regarding `CC(C)(Cn1cc2c(N)nc3cc(-c4ccn[nH]4)ccc3c2n1)C(=O)NC1CCC1` [Example 598], the results for the concentration for a half-maximal effect (EC50) at TLR8, with THP-1 cells and on TLR7 were more than 100 µM, 1.98 µM and more than 100 µM, respectively.

Regarding `CC(C)(Cn1cc2c(N)nc3cc(-c4ccn[nH]4)ccc3c2n1)C(=O)N1CC(F)(F)C1` [Example 599], the EC50 on TLR8 was more than 100 µM; with THP-1 cells, 2.18 µM; at TLR7 it was more than 100 µM.

Consider `CN(C)C(=O)C1(Cn2cc3c(N)nc4cc(-c5ccn[nH]5)ccc4c3n2)CC1` [Example 600], for which the results for the EC50 on TLR8, with THP-1 cells and on TLR7 were more than 100 µM, 3.99 µM and more than 100 µM, respectively.

Regarding `CC(C)(Cn1cc2c(N)nc3cc(-c4ccn[nH]4)ccc3c2n1)C(=O)NCc1cccnc1` [Example 601], the values for the EC50 on TLR8, in the test on THP-1 cells and on TLR7 were more than 100 µM, 32.4 µM and more than 100 µM, respectively.

As for `CC(C)(Cn1cc2c(N)nc3cc(-c4ccn[nH]4)ccc3c2n1)C(=O)NCC1CCOCC1` [Example 602], the figures for the EC50 on TLR8, with THP-1 cells and on TLR7 were more than 100 µM, 21.2 µM and more than 100 µM, respectively.

Take `CC(C)NC(=O)C(C)(C)Cn1cc2c(N)nc3cc(-c4ccn[nH]4)ccc3c2n1` [Example 603]: the values for the EC50 on TLR8, in the test on THP-1 cells and at TLR7 were more than 100 µM, 3.05 µM and more than 100 µM, respectively.

As for `CC(C)(Cn1cc2c(N)nc3cc(-c4ccn[nH]4)ccc3c2n1)C(N)=O` [Example 604], the results for the concentration for a half-maximal effect (EC50) on TLR8, in the test with THP-1 cells and on TLR7 were more than 100 µM, 0.85 µM and more than 100 µM, respectively.

Regarding `Nc1nc2cc(-c3ccn[nH]3)ccc2c2nn(CC3(C(=O)NCc4ccccn4)CC3)cc12` [Example 605], the EC50 at TLR8 is more than 100 µM; in the test with THP-1 cells, 22.4 µM; at TLR7, more than 100 µM.

With `Nc1nc2cc(-c3ccn[nH]3)ccc2c2nn(CC3(C(=O)NCC(F)F)CC3)cc12` [Example 606], the figures for the EC50 on TLR8, in the test with THP-1 cells and at TLR7 were more than 100 µM, 2.46 µM and more than 100 µM, respectively.

Consider `Nc1nc2cc(-c3ccn[nH]3)ccc2c2nn(CC3(C(=O)N4CCCC4)CC3)cc12` [Example 607], for which the figures for the EC50 at TLR8, in the test with THP-1 cells and on TLR7 were more than 100 µM, 13.4 µM and more than 100 µM, respectively.

Take `CNC(=O)C1(Cn2cc3c(N)nc4cc(-c5ccn[nH]5)ccc4c3n2)CC1` [Example 608]: the EC50 was more than 100 µM at TLR8, 0.7 µM in the test with THP-1 cells and more than 100 µM at TLR7.

On to `CC(C)(Cn1cc2c(N)nc3cc(-c4ccn[nH]4)ccc3c2n1)C(=O)NCCS(C)(=O)=O` [Example 609], for which the EC50 is more than 100 µM on TLR8, 18.1 µM with THP-1 cells and more than 100 µM on TLR7.

Turning to `COC1CCN(C(=O)C(C)(C)Cn2cc3c(N)nc4cc(-c5ccn[nH]5)ccc4c3n2)CC1` [Example 610], the EC50 on TLR8 was more than 100 µM; in the test with THP-1 cells it was 4.41 µM; on TLR7, more than 100 µM.

For the molecule `CC(C)(Cn1cc2c(N)nc3cc(-c4ccn[nH]4)ccc3c2n1)C(=O)NCc1ccccn1` [Example 611], the EC50 is more than 100 µM at TLR8, 9.94 µM in the test on THP-1 cells and more than 100 µM at TLR7.

Consider `CNC(=O)C(C)Cn1cc2c(N)nc3cc(-c4cc[nH]n4)ccc3c2n1` (stereo not drawn) [Example 612], for which the EC50 on TLR8 is more than 100 µM; with THP-1 cells, 0.43 µM; at TLR7 it was more than 100 µM.
